Source: patent US8263609B2, “Tetrahydro-β-carbolin-sulfonamide derivatives as 5-Ht6 ligands” (Laboratorios Del Dr. Esteve, S.A., priority 2005, dated 2012)

Experiments:
[1] = target: T1, 5HT6-human recombinant receptor (Homo sapiens, UniProt P50406); assay: Binding to Serotonin Receptor 5HT6 ([3H]-LSD radioligand displacement, HEK-293 cell membranes); conditions: [3H]-LSD 2.7 nM, HEK-293 membranes; for inhibition at 0.1 µM: compound at 10^−7 M, 60 min, 37° C.; for Ki: non-linear regression EBDA/LIGAND
T1 construct: purchased Receptor Biology; host or cells: HEK-293 cell membranes
Description: Binding to Serotonin Receptor 5HT6
Cell membranes of HEK-293 cells expressing the 5HT6-human recombinant receptor were supplied by Receptor Biology. In said membranes the receptor concentration is 2.18 pmol/mg protein and the protein concentration is 9.17 mg/ml. The experimental protocol follows the method of B. L. Roth et al. [B. L. Roth et al., The Journal of Pharmacology and Experimental Therapeutics, 1994, 268, 1403] with the following slight changes. The respective part of the literature description is hereby incorporated by reference and forms part of the disclosure.
The commercial membrane is diluted (1:40 dilution) with the binding buffer: 50 mM Tris-HCl, 10 mM MgCl2, 0.5 mM EDTA (pH 7.4). The radioligand used is [^3H]-LSD at a concentration of 2.7 nM with a final volume of 200 μl. incubation is initiated by adding 100 μl of membrane suspension, (≈22.9 μg membrane protein), and is prolonged for 60 minutes at a temperature of 37° C. The incubation is ended by fast filtration in a Brandel Cell Harvester through fiber glass filters made by Schleicher & Schuell GF 3362 pretreated with a solution of polyethylenimine at 0.5%. The filters are washed three times with three milliliters of buffer Tris-HCl 50 mM pH 7.4. The filters are transferred to flasks and 5 ml of Ecoscint H liquid scintillation cocktail are added to each flask. The flasks are allowed to reach equilibrium for several hours before counting with a Wallac Winspectral 1414 scintillation counter. Non-specific binding is determined in the presence of 100 μM of serotonin. Tests were made in triplicate. The inhibition constants (Ki, nM) were calculated by non-linear regression analysis using the program EBDA/LIGAND described in Munson and Rodbard, Analytical Biochemistry, 1980, 107, 220, which is hereby incorporated by reference and forms part of the disclosure.

T1 sequence (P50406 whole entry): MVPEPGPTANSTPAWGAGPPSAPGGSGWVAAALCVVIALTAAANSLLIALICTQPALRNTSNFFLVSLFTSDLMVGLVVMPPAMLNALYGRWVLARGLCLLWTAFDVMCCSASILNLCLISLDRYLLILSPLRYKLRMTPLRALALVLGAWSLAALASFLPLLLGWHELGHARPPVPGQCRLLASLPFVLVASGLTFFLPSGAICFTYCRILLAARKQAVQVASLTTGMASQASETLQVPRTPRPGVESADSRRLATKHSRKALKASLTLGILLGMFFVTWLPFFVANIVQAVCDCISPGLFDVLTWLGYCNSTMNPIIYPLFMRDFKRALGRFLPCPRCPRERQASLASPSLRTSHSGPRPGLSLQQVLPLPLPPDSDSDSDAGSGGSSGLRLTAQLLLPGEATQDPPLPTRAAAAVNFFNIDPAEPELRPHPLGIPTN

CN1CCc2c([nH]c3ccc(NS(=O)(=O)c4ccc5cc(Cl)ccc5c4)cc23)C1 [Example 16, 6-Chloro-naphthalene-2-sulfonic acid (2-methyl-2,3,4,9-tetrahydro-1H-β-carbolin-6-yl)-amide]
inhibition at 0.1 µM [1]: 85% | melting point: 174 to 175 °C

O=S(=O)(Nc1ccc2[nH]c3c(c2c1)CCN(CC(F)(F)F)C3)c1csc2ccccc12
melting point: 173 to 175 °C

CCCN1CCc2c([nH]c3ccc(NS(=O)(=O)c4c(Cl)nc5sccn45)cc23)C1 [Example 26, 6-Chloro-imidazo[2,1-b]thiazole-5-sulfonic acid (2-propyl-2,3,4,9-tetrahydro-1H-β-carbolin-6-yl)-amide]
Ki [1]: 2 nM | inhibition at 0.1 µM [1]: 87.9% | melting point: 206 to 207 °C

CN1CCc2c([nH]c3ccc(NS(=O)(=O)c4cc5ccccc5o4)cc23)C1
melting point: 165 to 166 °C

CN1CCc2c([nH]c3ccc(NS(=O)(=O)c4ccc5c(Cl)cccc5c4)cc23)C1 [Example 4, 5-Chloro-naphthalene-2-sulfonic acid (2-methyl-2,3,4,9-tetrahydro-1H-β-carbolin-6-yl)-amide]
inhibition at 0.1 µM [1]: 70.6%

CN1CCc2c([nH]c3cc(NS(=O)(=O)c4ccc5c(Cl)cccc5c4)ccc23)C1
melting point: 257 to 259 °C

CN1CCc2c([nH]c3ccc(NS(=O)(=O)c4ccc5ccccc5c4)cc23)C1 [Example 12, Naphthalene-2-sulfonic acid (2-methyl-2,3,4,9-tetrahydro-1H-β-carbolin-6-yl)-amide]
Ki [1]: 15.9 nM | inhibition at 0.1 µM [1]: 89.7% | melting point: 244 to 245 °C

CN1CCc2c([nH]c3ccc(NS(=O)(=O)c4ccc(N)cc4)cc23)C1
melting point: 236 to 237 °C

CN1CCc2c([nH]c3cccc(NS(=O)(=O)c4csc5ccccc45)c23)C1
melting point: 236 to 237 °C

CN1CCc2c([nH]c3c(NS(=O)(=O)c4cccc5nonc45)cccc23)C1
melting point: 246 to 247 °C

CN1CCc2c([nH]c3ccc(NS(=O)(=O)c4cccc5nsnc45)cc23)C1
melting point: 244 to 245 °C

CC(=O)Nc1nc(C)c(S(=O)(=O)Nc2ccc3[nH]c4c(c3c2)CCN(C)C4)s1
melting point: 199 to 200 °C

CN1CCc2c([nH]c3ccc(NS(=O)(=O)c4cccc5c(N(C)C)cccc45)cc23)C1
melting point: 241 to 242 °C

CN1CCc2c([nH]c3c(NS(=O)(=O)c4cccc5c(Cl)cccc45)cccc23)C1
melting point: 251 to 252 °C

CN1CCc2c([nH]c3ccc(NS(=O)(=O)c4csc5ccccc45)cc23)C1c1ccccc1 (stereo not drawn) [Example 29, Benzo[b]thiophene-3-sulfonic acid (2-methyl-1-phenyl-2,3,4,9-tetrahydro-1H-β-carbolin-6-yl)-amide]
melting point: 232 to 234 °C

CN1CCc2c([nH]c3c(NS(=O)(=O)c4ccc5ccccc5c4)cccc23)C1 [Example 38, Naphthalene-2-sulfonic acid (2-methyl-2,3,4,9-tetrahydro-1H-β-carbolin-8-yl)-amide]
inhibition at 0.1 µM [1]: 73.5% | melting point: 240 to 242 °C

CN1CCc2c([nH]c3ccc(NS(=O)(=O)c4cccc5ccccc45)cc23)C1
melting point: 245 to 246 °C

CC(=O)Nc1ccc(S(=O)(=O)Nc2ccc3[nH]c4c(c3c2)CCN(C)C4)cc1
melting point: 232 to 234 °C

CN1CCc2c([nH]c3ccc(NS(=O)(=O)c4ccc(F)c5ccccc45)cc23)C1
melting point: 236 to 238 °C

CN1CCc2c([nH]c3c(NS(=O)(=O)c4cccc5nsnc45)cccc23)C1
melting point: 238 to 240 °C

Cc1ccc2sc(S(=O)(=O)Nc3ccc4[nH]c5c(c4c3)CCN(C)C5)cc2c1 [Example 13, 5-Methyl-benzo[b]thiophene-2-sulfonic acid (2-methyl-2,3,4,9-tetrahydro-1H-β-carbolin-6-yl)-amide]
inhibition at 0.1 µM [1]: 71.1% | melting point: 241 to 242 °C

CN1CCc2c([nH]c3c(NS(=O)(=O)c4cccc5ccccc45)cccc23)C1
melting point: 259 to 260 °C

CCN1CCc2c([nH]c3ccc(NS(=O)(=O)c4csc5ccccc45)cc23)C1 [Example 22, Benzo[b]thiophene-3-sulfonic acid (2-ethyl-2,3,4,9-tetrahydro-1H-β-carbolin-6-yl)-amide]
Ki [1]: 36.7 nM | inhibition at 0.1 µM [1]: 84.6% | melting point: 215 to 216 °C

CN1CCc2c([nH]c3cccc(NS(=O)(=O)c4cccc5ccccc45)c23)C1
melting point: 217 to 218 °C

CN1CCc2c([nH]c3cccc(NS(=O)(=O)c4ccc5c(Cl)cccc5c4)c23)C1
melting point: 245 to 247 °C

CN1CCc2c([nH]c3cccc(NS(=O)(=O)c4c(Cl)nc5sccn45)c23)C1
melting point: 252 to 253 °C

CN1CCc2c([nH]c3c(NS(=O)(=O)c4c(Cl)nc5sccn45)cccc23)C1
melting point: 230 to 232 °C

CCN1CCc2c([nH]c3ccc(NS(=O)(=O)c4ccc5ccccc5c4)cc23)C1
melting point: 174 to 176 °C

CN1CCc2c([nH]c3cc(NS(=O)(=O)c4csc5ccccc45)ccc23)C1
melting point: 255 to 257 °C

CN1CCc2c([nH]c3c(NS(=O)(=O)c4ccc5c(Cl)cccc5c4)cccc23)C1
melting point: 256 to 257 °C

O=S(=O)(Nc1ccc2[nH]c3c(c2c1)CCN(CC(F)(F)F)C3)c1ccc2c(Cl)cccc2c1
melting point: 164 to 166 °C

CN1CCc2c([nH]c3c(NS(=O)(=O)c4cccc5c(N(C)C)cccc45)cccc23)C1
melting point: 225 to 226 °C

CN1CCc2c([nH]c3ccc(NS(=O)(=O)c4csc5ccccc45)cc23)C1 [Example 2, Benzo[b]thiophene-3-sulfonic acid (2-methyl-2,3,4,9-tetrahydro-1H-β-carbolin-6-yl)-amide]
Ki [1]: 2.8 nM | inhibition at 0.1 µM [1]: 79.5% | melting point: 224 to 226 °C

CN1CCc2c([nH]c3ccc(NS(=O)(=O)c4c(Cl)nc5sccn45)cc23)C1 [Example 1, 6-chloro-imidazo[2,1-b]thiazole-5-sulfonic acid (2-methyl-2,3,4,9-tetrahydro-1H-β-carbolin-6-yl)-amide]
Ki [1]: 0.9 nM | inhibition at 0.1 µM [1]: 80.7% | melting point: 232 to 233 °C

O=S(=O)(Nc1ccc2[nH]c3c(c2c1)CCN(CC(F)(F)F)C3)c1c(Cl)nc2sccn12
melting point: 232 to 233 °C

CN1CCc2c([nH]c3ccc(NS(=O)(=O)c4ccc5ccccc5c4)cc23)C1c1ccccc1 (stereo not drawn) [Example 28, Naphthalene-2-sulfonic acid (2-methyl-1-phenyl-2,3,4,9-tetrahydro-1H-β-carbolin-6-yl)-amide]
melting point: 255 to 260 °C

Cc1c(S(=O)(=O)Nc2ccc3[nH]c4c(c3c2)CCN(C)C4)sc2ccc(Cl)cc12
melting point: 259 to 260 °C

CN1CCc2c([nH]c3ccc(NS(=O)(=O)c4ccc5ccc(Cl)cc5c4)cc23)C1
melting point: 230 to 231 °C

CN1CCc2c([nH]c3c(NS(=O)(=O)c4cc5ccccc5o4)cccc23)C1
melting point: 229 to 231 °C

CC(C)N1CCc2c([nH]c3ccc(NS(=O)(=O)c4c(Cl)nc5sccn45)cc23)C1 [Example 27, 6-Chloro-imidazo[2,1-b]thiazole-5-sulfonic acid (2-isopropyl-2,3,4,9-tetrahydro-1H-β-carbolin-6-yl)-amide]
inhibition at 0.1 µM [1]: 81.8% | melting point: 234 to 235 °C

CN1CCc2c([nH]c3c(NS(=O)(=O)c4csc5ccccc45)cccc23)C1 [Example 45, Benzo[b]thiophene-3-sulfonic acid (2-methyl-2,3,4,9-tetrahydro-1H-β-carbolin-8-yl)-amide]
Ki [1]: 29.7 nM | inhibition at 0.1 µM [1]: 87.1% | melting point: 225 to 226 °C

CN1CCc2c([nH]c3cc(NS(=O)(=O)c4c(Cl)nc5sccn45)ccc23)C1 [Example 35, 6-Chloro-imidazo[2,1-b]thiazole-5-sulfonic acid (2-methyl-2,3,4,9-tetrahydro-1H-β-carbolin-7-yl)-amide]
Ki [1]: 8 nM | inhibition at 0.1 µM [1]: 90% | melting point: 225 to 227 °C

CCN1CCc2c([nH]c3ccc(NS(=O)(=O)c4c(Cl)nc5sccn45)cc23)C1 [Example 19, 6-Chloro-imidazo[2,1-b]thiazole-5-sulfonic acid (2-ethyl-2,3,4,9-tetrahydro-1H-β-carbolin-6-yl)-amide]
Ki [1]: 1.1 nM | inhibition at 0.1 µM [1]: 97% | melting point: 219 to 222 °C

O=S(=O)(Nc1ccc2[nH]c3c(c2c1)CCNC3)c1c(Cl)nc2sccn12 [Example 47, 6-chloro-imidazo[2,1-b]thiazole-5-sulfonic acid (2,3,4,9-tetrahydro-1H-β-carbolin-6-yl)-amide]
melting point: 242 to 244 °C
